Target: T1, FLT3 (Homo sapiens, UniProt P36888)
T1 construct: purchased Carna 08-145
T1 sequence (P36888 27-993): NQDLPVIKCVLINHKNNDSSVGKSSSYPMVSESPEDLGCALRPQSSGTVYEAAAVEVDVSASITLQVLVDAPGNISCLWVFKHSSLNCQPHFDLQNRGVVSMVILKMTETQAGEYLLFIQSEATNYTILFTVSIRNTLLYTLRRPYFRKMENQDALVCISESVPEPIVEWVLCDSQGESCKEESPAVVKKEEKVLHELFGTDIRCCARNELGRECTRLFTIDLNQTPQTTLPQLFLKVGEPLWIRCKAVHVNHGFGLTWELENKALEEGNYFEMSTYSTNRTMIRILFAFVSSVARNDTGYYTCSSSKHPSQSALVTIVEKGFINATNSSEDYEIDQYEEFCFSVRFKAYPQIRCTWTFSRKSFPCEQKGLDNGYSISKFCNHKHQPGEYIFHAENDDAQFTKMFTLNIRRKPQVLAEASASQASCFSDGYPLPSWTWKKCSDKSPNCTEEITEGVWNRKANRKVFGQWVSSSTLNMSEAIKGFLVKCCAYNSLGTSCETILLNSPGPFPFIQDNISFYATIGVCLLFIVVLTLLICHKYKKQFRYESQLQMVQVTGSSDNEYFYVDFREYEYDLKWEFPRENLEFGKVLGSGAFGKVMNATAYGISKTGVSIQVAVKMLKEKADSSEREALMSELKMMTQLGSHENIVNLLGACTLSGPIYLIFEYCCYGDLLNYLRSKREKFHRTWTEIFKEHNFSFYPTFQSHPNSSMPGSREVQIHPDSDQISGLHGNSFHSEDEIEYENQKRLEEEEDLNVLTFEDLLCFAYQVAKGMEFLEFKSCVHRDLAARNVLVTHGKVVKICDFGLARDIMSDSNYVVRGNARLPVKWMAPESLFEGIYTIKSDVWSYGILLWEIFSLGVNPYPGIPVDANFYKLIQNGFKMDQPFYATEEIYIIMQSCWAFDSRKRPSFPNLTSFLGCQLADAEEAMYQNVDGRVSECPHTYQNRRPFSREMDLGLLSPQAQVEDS
Experiment: FLT3 kinase in vitro inhibitory activity experiment (Caliper mobility shift, conversion rate)
Format: biochemical
Conditions: IC50 class, read-out: Enzyme activity FLT3
Description: Biological Test Example 1: FLT3 Kinase In Vitro Inhibitory Activity Experiment
Centrifuge (manufacturer: Eppendorf, model: 5430), microplate reader (manufacturer: Perkin Elmer, model: Caliper EZ Reader II), Echo 550 (manufacturer: Labcyte, model: Echo 550)
1. Kinase Reaction Process
• (1) 1×Kinase buffer was prepared. • (2) Preparation of the serial compound dilutions: the initial stock (the concentration of the tested compound was 1 μM) was diluted by 3-fold into 10 concentrations, and was single-well detected. The compounds were series diluted to solutions of 10 different concentration (100-folds final concentration) in 384-well plates. 250 nl of solution was transferred to each well of 384-well plate by Echo550. 100% DMSO (250 nl) was added to negative control wells and positive control wells respectively. • (3) Kinase solution (2.5 times final concentration) was prepared with 1×Kinase buffer. • (4) 10 μL of kinase solution (2.5 times final concentration) was added to compound wells and positive control wells respectively: 1×Kinase buffer (10 μL) was added to the negative control wells. • (5) The solution was centrifuged at 1000 rpm for 30 seconds, shaked and mixed, and incubated at room temperature for 10 minutes. • (6) The mixed solution of ATP and Kinase substrate 2 (25/15 times final concentration) was prepared with 1×Kinase buffer. • (7) 15 μL of mixed solution ATP and Kinase substrate 2 (25/15 times final concentration) was added to initiated the reaction. • (8) 384 well plate was centrifuged at 1000 rpm for 30 seconds, shaked and mixed, then incubated at room temperature for 30 minutes. • (9) Stop solution (30 μL) was added to stop kinase reaction, and the solution was centrifuged at 1000 rpm for 30 seconds, shaked and mixed. • (10) The conversion rate was read with Caliper EZ Reader II. 2. Data Analysis Formula for Calculation
Wherein: Conversion %_sample is the reading of the sample conversion; Conversion %_min: negative control well.

| Structure (SMILES) | IC50 |
| --- | --- |
| COc1cc(-c2cnc(N)c3ncc(NC4CCOCC4)nc23)ccc1N1CCC(N2CCN(C)CC2)CC1 [Compound 25] | 0.01 to 0.1 µM |
| CCc1nc2c(N)ncc(-c3ccn(C)c3)c2nc1NC1CCOCC1 [Compound 56] | 0.01 to 0.1 µM |
| CCc1nc2c(N)ncc(-c3ccc4c(c3)OCCN4C)c2nc1NC1CCOCC1 [Compound 61] | 0.01 to 0.1 µM |
| CCc1nc2c(N)ncc(-c3ccc(N4CCC(N5CCN(C)CC5)CC4)c(OC)c3)c2nc1NC [Compound 76] | 0.01 to 0.1 µM |
| CCc1nc2c(N)ncc(Br)c2nc1N[C@@H]1CC[C@H](O)C1 [Compound 151, (1S, 3R)-3-((5-amino-8-bromo-3-ethylpyridino[3,4-b]pyrazine-2-yl)amino)cyclopentan-1-ol] | 0.1 to 0.5 µM |
| CCc1nc2c(N)ncc(-c3ccc(N4CCC(N5CCN(C)CC5)CC4)c(OC)c3)c2nc1N[C@H]1CCC[C@@H](O)C1 [Compound 255] | ≤ 0.01 µM |
| CCc1nc2c(Nc3cccnc3)ncc(-c3cnn(C4CCNCC4)c3)c2nc1N[C@@H]1CC[C@H](O)C1 [Compound 262] | 0.01 to 0.1 µM |
| CCc1nc2c(N)nccc2nc1N[C@@H]1CC[C@H](O)C1 [Compound 263, (1S,3R)-3-((5-amino-3-ethylpyridino[3,4-b]pyrazine-2-yl)amino)cyclopentan-1-ol] | > 0.5 µM |
| CCc1nc2c(N)ncc(-c3cnn(C4CCN(C)CC4)c3)c2nc1N(C)CC(C)(C)O [Compound 264] | ≤ 0.01 µM |

Other lines, results leading:

| IC50 | Structure (SMILES) |
| --- | --- |
| 0.01 to 0.1 µM | CCc1nc2c(N)ncc(-c3ccc(N4CCC(N5CCN(C)CC5)CC4)c(S(C)(=O)=O)c3)c2nc1NC1CCOCC1 [Compound 18, 3-ethyl-8-(4-(4-(4-methylpiperazine-1-yl)piperidine-1-yl)-3-(methylsulfyl)phenyl)-N2-(tetrahydro-2H-pyran-4-yl) pyridino [3,4-b] pyrazine-2,5-diamine] |
| ≤ 0.01 µM | CCc1nc2c(N)ncc(-c3ccc(N4CCC(N5CCN(C)CC5)CC4)c(C(C)(C)O)c3)c2nc1NC1CCOCC1 [Compound 19, 2-(5-(5-amino-3-ethyl-2-((tetrahydro-2H-pyran-4-yl)amino)pyridino[3,4-b]pyrazine-8-yl)-2-(4-(4-methylpiperazine-1-yl)piperidine-1-yl)phenyl)propan-2-ol] |
| 0.01 to 0.1 µM | CCc1nc2c(N)ncc(-c3cnn(C)c3)c2nc1NC1CCOCC1 [Compound 57] |
| ≤ 0.01 µM | CCc1nc2c(N)ncc(-c3ccc(N4CCC(N5CCN(C)CC5)CC4)c(OC)c3)c2nc1N[C@H]1CC[C@@H](O)CC1 [Compound 82] |
| ≤ 0.01 µM | CCc1nc2c(N)ncc(-c3cnn(CC4CCN(C)CC4)c3)c2nc1NC1CCOCC1 [Compound 137] |
| ≤ 0.01 µM | CCc1nc2c(N)ncc(-c3cnn(CC4CCNCC4)c3)c2nc1NC1CCOCC1 [Compound 154] |
| ≤ 0.01 µM | CCc1nc2c(N)ncc(-c3cnn(C4CCN(c5cc(F)cc(F)c5)CC4)c3)c2nc1N[C@@H]1CC[C@H](O)C1 [Compound 173] |
| ≤ 0.01 µM | CCc1nc2c(N)ncc(-c3cnn(C4CCN(CCO)CC4)c3)c2nc1N[C@H]1CCOC1 [Compound 229] |
| ≤ 0.01 µM | CCc1nc2c(N)ncc(-c3cnn(C(C)C)c3)c2nc1N[C@H]1CCOC1 [Compound 230] |
| ≤ 0.01 µM | CCc1nc2c(N)ncc(-c3cnn(C4COC4)c3)c2nc1N[C@H]1CCOC1 [Compound 231] |
| ≤ 0.01 µM | CCc1nc2c(N)ncc(-c3cnn(C4CCN(C5CCN(C)CC5)CC4)c3)c2nc1N[C@@H]1CCOC1 [Compound 250] |
| ≤ 0.01 µM | CCc1nc2c(N)ncc(-c3ccc(N4CCC(N5CCN(C)CC5)CC4)c(OC)c3)c2nc1N[C@H]1CCC[C@H](O)C1 [Compound 256] |
| ≤ 0.01 µM | CCc1nc2c(N)ncc(-c3cnn(C4CCNCC4)c3)c2nc1N[C@@H]1CCOC1 [Compound 258] |
| ≤ 0.01 µM | CCc1nc2c(N)ncc(-c3cnn(C4CCNCC4)c3)c2nc1N[C@H]1CCOC1 [Compound 259, (S)-3-ethyl-8-(1-(piperidin-4-yl)-1H-pyrazol-4-yl)-N2-(tetrahydrofuran-3-yl)pyridino[3,4-b]pyrazin-2,5-diamine] |
